Test results from patent publication US20250241890A1, “1,4-DIUREAS AND 1,4-DITHIOUREAS AND USES THEREOF” (Purdue Research Foundation, priority 2024, published 2025).

Tests used:
[1] = tested on: neuroblastoma cells (SH-SY5Y); assay: Crystal violet staining cytotoxicity; assay type: cell-based, human; conditions: four days
Procedure: The cytotoxicity of compounds 1 and 2 was assessed using human neuroblastoma cells (SH-SY5Y). Employing the crystal violet staining method, determination of the optical density was used to reflect on the percentage of cells attached to each well (6-well plate format) after treatment with control DMSO (0.14) and compound concentrations at 5 and 10 μM. Treated cells were incubated at 37° C. with 5% CO2 for four days. […] Compound 2 was also non cytotoxic at higher concentration, i.e., 10 μM. Differences were not statistically significant at […] via one-way analysis of variance ANOVA with post-test (Dunnett's multiple comparison test).

[2] = tested on: neuroblastoma cells (SH-SY5Y); assay: MTT cytotoxicity; assay type: cell-based, human; conditions: for cell survival, MTT, difference to DMSO control: 20 μM, 48 hours; for cytotoxicity, MTT: 5 or 10 μM, 24 hours
Procedure: MTT (3-(4,5-Dimethylthiazol-2-yl)-2,5-diphenyltetrazolium bromide) is a tetrazolium salt that is commonly used to detect reductive metabolism in cells for viability, proliferation and cytotoxicity assays. MTT was utilized in order to evaluate metabolic cellular toxicity of compounds 1, 2, and DMSO (vehicle) using human neuroblastoma cells (SH-SY5Y). Cells were diluted in cellular media in order to obtain ˜500,000 cells per condition and grown for 8-12 hours prior treatment. Cellular media (see the material and method section below) was then removed. The cells were then treated with compounds 1 or 2 at 20 μM or DMSO control at 0.05% (FIG. 9) diluted in cellular media followed by an additional incubation of 48 hours. Cellular media was removed, and the cells were treated with 50% MTT in cellular media for 2 hours at 37° C. followed by detergent solution. Differences were considered non-significant (at p<0.05) (FIG. 9) based on the one-way analysis of variance (ANOVA) without post-test performed with GraphPad Prism (version 5).
MTT assay was performed once again with compounds 1 and 2 and DMSO control at 5 and 10 μM. Each well contained ˜500,000 cells (6-well plate) prepared 8-12 hours prior to treatment. The cells were treated for 24 hours, and then MTT method was applied to assess cell survival. […] No differences were detected at p<0.001 using the one-way analysis of variance (ANOVA) with Dunnett's multiple comparison test.

tau isoform 0N4R = target: T1, tau isoform 0N4R (Homo sapiens, UniProt P10636); assay: PICUP assay of tau 0N4R oligomer formation; assay type: biochemical; conditions: tau 10 μM, compound 50 μM (molar ratio 1:5)
T1 construct: made in house; host or cells: Rosetta BL21 E. coli
Procedure: FIG. 5. […] Compounds 1, 2, and 8 were selected for their α-syn anti-oligomerization activity. Compound 7 was used as di-urea counterpart of compound 8, as compound 1 is the di-urea counterpart of compound 2, a dithiourea derivative. Tau (10 μM) was cross-linked (PICUP assay) with different concentrations of the di-substituted aminoindolyl derivatives at 50 μM (molar ratio 1:5).
Chemical and peptide source. Dimethylsulfoxide (DMSO) and thioflavin-T (ThT) were purchased from Alfa Aesar (Ward Hill, MA). Recombinant α-synuclein (α-syn) was procured from rPeptide (WatKinsville, GA). The recombinant p-tau isoform 1N4R was prepared as published previously (Fortin et al. 2021, Sui et al. 2015, Liu et al. 2020). Concerning the preparation of tau 0N4R, a bacterial expression plasmid consisting of the vector pET30a carrying a cDNA encoding the human Tau 0N4R isoform was a kind gift of Dr. Benjamin Wolozin (Boston University). E. coli stock (Rosetta BL21 E. coli (CamR) containing pET30a [0N4R tau wt] (KanR)) was grown in LB medium supplemented with kanamycin (50 μg/mL) and chloramphenicol (50 μg/mL). […] General Characterizations. ^1H and ^13C {1H} NMR spectra were recorded using a 500 MHz Bruker instrument working at a frequency of 500 MHz for ^1H and at 126 MHz for ^13C. […] Thioflavin fluorescence assays. Thioflavin fluorescence assays were used to monitor fibril formation of commercial recombinant α-syn at a final concentration of 2 μM and treated with control DMSO and different compounds. […] Kinetics of fibril formation have been performed using ThT as published previously.^6, 12, 13, 24 The fluorescence emission experiments were performed with the excitation and emission wavelengths set at 440 and 485 nm, respectively, with a Synergy HT multi-mode microplate reader (BioTek, Winooski, VT). Samples were measured in three replicates. […] For each time point, arbitrary units of fluorescence were calculated from the mean values normalized against the maximum value. The percentage of fluorescence intensity at the plateau phase in Table 1 was expressed as mean #SEM. […]

p-tau isoform 1N4R = target: T2, p-tau isoform 1N4R (Homo sapiens, UniProt P10636); assay: PICUP assay of p-tau 1N4R oligomer formation; assay type: biochemical; conditions: p-tau 4 μM, compound 50 μM (molar ratio 1:12.5)
T2 construct: made in house

α-syn fibrils = target: T3, α-syn fibrils (Homo sapiens, UniProt P37840); assay: Transmission electron microscopy (TEM) of α-syn fibrils; assay type: biochemical; conditions: α-syn 2 μM, compound 100 μM, ~22 hours at 37° C.
T3 construct: purchased rPeptide (Watkinsville, GA)

T1 sequence (P10636 1-383 isoform P10636-6): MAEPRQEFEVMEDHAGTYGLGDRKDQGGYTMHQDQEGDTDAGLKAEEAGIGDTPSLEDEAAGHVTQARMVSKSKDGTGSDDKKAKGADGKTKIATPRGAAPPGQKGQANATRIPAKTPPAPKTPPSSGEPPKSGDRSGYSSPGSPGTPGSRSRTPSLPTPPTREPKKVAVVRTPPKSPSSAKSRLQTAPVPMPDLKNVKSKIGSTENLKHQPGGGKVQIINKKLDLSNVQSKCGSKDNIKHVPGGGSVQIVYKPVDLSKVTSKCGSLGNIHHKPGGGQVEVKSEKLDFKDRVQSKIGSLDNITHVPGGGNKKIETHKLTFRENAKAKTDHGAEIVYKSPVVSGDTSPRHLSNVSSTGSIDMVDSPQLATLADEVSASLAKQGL
T2 sequence (P10636 1-412 isoform P10636-7): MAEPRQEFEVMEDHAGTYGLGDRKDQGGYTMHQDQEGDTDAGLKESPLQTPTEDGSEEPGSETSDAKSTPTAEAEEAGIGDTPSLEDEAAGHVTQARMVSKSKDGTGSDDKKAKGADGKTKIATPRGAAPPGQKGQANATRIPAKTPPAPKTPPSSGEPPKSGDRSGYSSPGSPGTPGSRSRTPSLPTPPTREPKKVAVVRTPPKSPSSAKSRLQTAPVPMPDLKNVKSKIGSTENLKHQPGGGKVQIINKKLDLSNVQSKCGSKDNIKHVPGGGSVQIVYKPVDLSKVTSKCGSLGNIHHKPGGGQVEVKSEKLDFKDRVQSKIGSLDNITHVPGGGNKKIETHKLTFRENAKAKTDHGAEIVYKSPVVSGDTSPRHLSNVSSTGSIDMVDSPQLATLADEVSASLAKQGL

| Structure (SMILES) | cytotoxicity, crystal violet staining ([1]; 5 μM) | cell survival, MTT, difference to DMSO control [2] | cytotoxicity, MTT [2] | effect on tau 0N4R oligomer formation by PICUP (tau isoform 0N4R) | effect on p-tau 1N4R oligomer formation by PICUP (p-tau isoform 1N4R) | effect on α-syn fibrils by TEM (α-syn fibrils) | cytotoxicity, crystal violet staining ([1]; 10 μM) |
| --- | --- | --- | --- | --- | --- | --- | --- |
| O=C(Nc1ccc(NC(=O)Nc2cccc3[nH]ccc23)cc1)Nc1cccc2[nH]ccc12 [Compound 1, 3-(1H-indol-4-yl)-1-(4-{[(1H-indol-4-yl)carbamoyl]amino}phenyl)urea] | non cytotoxic | non-significant | did not induce cytotoxicity |  |  |  |  |
| S=C(Nc1ccc(NC(=S)Nc2cccc3[nH]ccc23)cc1)Nc1cccc2[nH]ccc12 [Compound 2, 3-(1H-indol-4-yl)-1-(4-{[(1H-indol-4-yl)carbamothioyl]amino}phenyl)thiourea] | non cytotoxic | non-significant | did not induce cytotoxicity | None of these compounds were able to reduce the tau 0N4R oligomer formation | failed to inhibit p-tau oligomer formation | reduced α-syn fibril formation | non cytotoxic |
| S=C(Nc1ccc(NC(=S)Nc2cccc3cc[nH]c23)cc1)Nc1cccc2cc[nH]c12 [Compound 8, 3-(1H-indol-7-yl)-1-(4-{[(1H-indol-7-yl)carbamothioyl]amino}phenyl)thiourea] |  |  |  | None of these compounds were able to reduce the tau 0N4R oligomer formation |  |  |  |
